The term AUC(0-inf) denotes total exposure, with the tail of the curve extrapolated. Broadly, the Cmax is the maximum level reached in the sampled fluid or tissue. The term MRT last denotes a mean duration of stay, worked out from the concentration-time curve. By Tmax is commonly meant the time from dosing to the highest level. Usually AUC(0-t) stands for the area under the concentration-time curve up to a stated or last time point. Read a low AUC(0-t) as low exposure. Usually half-life stands for the time needed for the level to fall by half in the phase considered. One may read the pIC50 as the IC50 on a negative log10 scale, so that one unit is a factor of ten.

The results in this text go back to publication PMC12144419, “Early preclinical development of Mycobacteriumtuberculosis amino acid biosynthesis pathway inhibitor DRILS-1398 as a potential anti-TB drug” (iScience, 2025).

pIC50: −log10 of the molar value. “Also recorded” adds a separate entry of the source.

Data set [1] is described as follows: Single-dose oral pharmacokinetics in male BALB/c mice. The conditions noted are these: mouse, in vivo. As for the experimental part:
Male BALB/c mice aged 8-9 weeks were used for experimentation after a minimum of 3 days of acclimatization.[38]^,[39]^,[40] Fasted animals were administered with DRILS-1398 or DRILS-1398 (F) in a recommended vehicle (1%(v/v) Tween 80 + 99% (v/v) of 0.5% (w/v) Carboxymethylcellulose sodium salt in ultrapure water) by oral route with a dose of 50 mg/kg body weight of DRILS-1398 or 10 mg/kg and 30 mg/kg for DRILS-1398(F) at a dose volume of 10 mL/kg b.w. Under mild isoflurane anesthesia, a blood specimen was collected into pre-labeled tubes containing anticoagulant (K2EDTA - 2 mg/mL blood) during the next 24 hours of post-dose (Table-PK study design chart). The collected blood specimens were centrifuged at 6000 rpm, 4°C for 10 min, and plasma was separated and stored at -80°C until analysis. […] Concentrations of analyte DRILS-1398 in mice plasma samples were determined using the Shimadzu LCMS-8045 LC-MS/MS system. The protocols were approved by the Institutional Animal Ethics Committee of the Preclinical Research Department, Anthem Biosciences Pvt. Ltd., Bangalore 560099, India (Study no for 50mg/kg PK study: N20084, (ABD/IASE/PR/185/19-22) and the study no for PK studies for 10mg/kg and 30mg/kg of DRILS-1398(F): ABD-8056 and ABD-7967A (ABD/IAEC/PR/89-17-20) respectively.

The test system of the next data set is M.tb H37Rv cells. As to the kind of experiment: In vitro amino acid supplementation (rescue) growth experiment. The format is cell-based, Mycobacterium tuberculosis. The following applies: amino acid 100 μg/mL.
The next data set concerns M.tb H37Rv. As to the kind of experiment: In vivo efficacy study, M.tb H37Rv infected mice (CFU in lung and spleen). The conditions noted are these: 10-50 mg/kg on alternate days for four weeks.
The target in another data set is CYP 3A4 (Homo sapiens, UniProt P08684). The data set is described as follows: biochemical.
Chain of CYP 3A4 (P08684 whole entry): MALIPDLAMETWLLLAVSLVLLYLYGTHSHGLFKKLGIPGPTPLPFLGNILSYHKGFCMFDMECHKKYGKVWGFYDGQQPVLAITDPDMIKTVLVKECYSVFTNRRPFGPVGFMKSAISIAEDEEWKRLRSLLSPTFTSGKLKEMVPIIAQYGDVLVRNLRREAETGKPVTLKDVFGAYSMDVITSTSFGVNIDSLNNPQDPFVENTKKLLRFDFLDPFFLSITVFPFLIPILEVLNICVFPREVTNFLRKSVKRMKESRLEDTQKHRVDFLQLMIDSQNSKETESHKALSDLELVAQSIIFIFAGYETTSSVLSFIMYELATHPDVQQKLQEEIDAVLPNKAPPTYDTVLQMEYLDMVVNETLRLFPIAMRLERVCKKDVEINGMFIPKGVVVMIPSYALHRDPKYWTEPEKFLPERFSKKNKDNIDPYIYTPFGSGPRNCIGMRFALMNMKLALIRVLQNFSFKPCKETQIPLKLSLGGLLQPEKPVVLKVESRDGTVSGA
The next data set concerns the target CYP 2C19 (Homo sapiens, UniProt P33261). The data set is described as follows: biochemical.

Chain of CYP 2C19 (P33261 whole entry): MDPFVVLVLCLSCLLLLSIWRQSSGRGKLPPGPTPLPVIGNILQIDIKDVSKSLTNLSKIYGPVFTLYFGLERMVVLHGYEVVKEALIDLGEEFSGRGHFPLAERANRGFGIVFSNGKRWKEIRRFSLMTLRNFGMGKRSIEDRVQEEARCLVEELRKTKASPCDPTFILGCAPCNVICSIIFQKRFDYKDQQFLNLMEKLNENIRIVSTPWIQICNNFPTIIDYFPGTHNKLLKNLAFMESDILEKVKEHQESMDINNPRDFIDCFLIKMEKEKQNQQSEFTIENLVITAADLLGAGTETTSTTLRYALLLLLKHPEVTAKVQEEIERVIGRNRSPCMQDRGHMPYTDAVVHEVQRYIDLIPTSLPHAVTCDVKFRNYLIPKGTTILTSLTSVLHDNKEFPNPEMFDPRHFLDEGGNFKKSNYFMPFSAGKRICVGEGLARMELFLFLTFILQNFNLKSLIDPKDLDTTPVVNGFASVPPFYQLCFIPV
Experimental for CYP 2C19: (§1) This study performed CYP inhibition assay using Vivid CYP P450 (1A2, 2C9, 2C19, 2D6, and 3A4) blue screening kits.[56] […] The fluorescent reading was taken using a microplate reader at excitation/emission wavelengths of 415/460 nm, respectively. The % of CYP inhibition of test/positive control at each tested concentration was calculated, and the IC50 value against each CYP isoform was plotted using Graph pad prism software.
Experimental for CYP 3A4: as §1

In data set [1] (male, BALB/c, po, 50 mg/kg), `CCCc1nn(C)c2c(-c3c[nH]c4ccc(Cl)cc34)nc(-c3ccc(Cl)cc3)nc12` [DRILS-1398] came in with a total exposure AUC(0-inf) of 21400 ng·h/mL, an AUCextrap of 10.30%, a peak concentration (Cmax) of 1580 ng/mL and an MRT last of 7.52 h. Besides, in data set [1] (male, BALB/c, po, 50 mg/kg), the Tmax amounted to 4 h. In data set [1] (male, BALB/c, oral 50 mg/kg), this molecule gave an exposure AUC(0-t) of 19200 ng·h/mL and a half-life of 6.95 h. In addition, the “Adverse clinical signs during PK treatment” value in data set [1] (po, 50 mg/kg) is on record as “did not show any adverse clinical signs”. Moreover, the “Growth of M.tb H37Rv with compound, amino acids added after 24 h” value in the data set with M.tb H37Rv cells (4 μg/mL compound, until 96 h) is listed as “showed inhibitory effects up to 24 h”. Moreover, the “Growth of M.tb H37Rv with compound and tyrosine or phenylalanine added at time 0” value in the data set on M.tb H37Rv cells (~10 μM compound, 24-96 h) is reported as “amino acid supplementation rescued the cells from the inhibitory effects”. In addition, the “Clearance of M.tb H37Rv infection in lungs and spleen (CFU)” value in the data set with M.tb H37Rv is “successful in clearing M.tb infection from the lungs and spleen; also recorded: effectively cleared”. The molecule further gave a pIC50 against CYP 3A4 of less than 4.52. Besides, the negative logarithm of the IC50 (pIC50) against CYP 2C19 is 4.86.
